According to US20130096156A1 (priority 2010, published 2013):
Read-outs that look alike come from different tables or passages of the source.

Columns and labels:
Phytophthora infestans = experiment: whole plant or invertebrate; assay type: in vivo; conditions: in Solanum lycopersicum, foliar, read-out: inhibit fungal infestation (percent disease control compared to untreated)
[1] = test system: Blumeria graminis f. sp. tritici (Erysiphe graminis f. sp. tritici); experiment: Blumeria graminis f. sp. tritici / wheat / leaf disc preventative (powdery mildew on wheat); assay type: in vivo; conditions: foliar, wheat leaf segments cv. Kanzler, inoculated 1 day after application, assessed 6-8 days after application, read-out: inhibit fungal infestation (percent disease control compared to untreated)
Method: (§1) Leaf disks of various plant species (diameter 14 mm) are cut from plants grown in the greenhouse. The cut leaf disks are placed in multiwell plates (24-well format) onto water agar. Immediately after cutting the leaf disks are sprayed with a test solution.
(§2) Compounds to be tested are prepared as DMSO solutions (max. 10 mg/ml). Just before spraying the solutions are diluted to the appropriate concentrations with 0.025% Tween20. After drying, the leaf disks are inoculated with a spore suspension of the appropriate pathogenic fungus.
(§3) After an incubation time of 3-7 days after inoculation at defined conditions (temp, rH, light, etc.) according to the respective test system, the activity of the test compound is assessed as antifungal activity.
Wheat leaf segments cv. Kanzler are placed on agar in a multiwell plate (24-well format) and sprayed with the formulated test compound diluted in water. The leaf disks are inoculated by shaking powdery mildew infected plants above the test plates 1 day after application. The inoculated leaf disks are incubated at 20° C. and 60% rh under a light regime of 24 h darkness followed by 12 h light/12 h darkness in a climate chamber and the activity of a compound is assessed as percent disease control compared to untreated when an appropriate level of disease damage appears on untreated check leaf segments (6-8 days after application).

Pythium ultimum = Pythium ultimum / liquid culture (seedling damping off); assay type: cell-based; conditions: Globisporangium ultimum, liquid culture in PDB, 24° C., 2-3 days after application, read-out: inhibit fungal infestation (inhibition of growth determined photometrically)
Method: Mycelia fragments or conidia suspensions of a fungus, prepared either freshly from liquid cultures of the fungus or from cryogenic storage, are directly mixed into nutrient broth. DMSO solutions of the test compound (max. 10 mg/ml) is diluted with 0.025% Tween20 by factor 50 and 10 μl of this solution is pipetted into a microtiter plate (96-well format) and the nutrient broth containing the fungal spores/mycelia fragments is then added to give an end concentration of the tested compound. The test plates are incubated at 24° C. and 96% rH in the dark. The inhibition of fungal growth is determined photometrically after 2-6 days and antifungal activity is calculated.
Mycelia fragments and oospores of a newly grown liquid culture of the fungus are directly mixed into nutrient broth (PDB potato dextrose broth). After placing a (DMSO) solution of test compound into a microtiter plate (96-well format), the nutrient broth containing the fungal mycelia/spore mixture is added. The test plates are incubated at 24° C. and the inhibition of growth is determined photometrically 2-3 days after application.

Plasmopara viticola = Plasmopara viticola / grape / leaf disc preventative; assay type: in vivo; conditions: foliar, grape vine leaf disks, inoculated 1 day after application, assessed 6-8 days after application, read-out: inhibit fungal infestation (percent disease control compared to untreated)
Method: as §1, §2, §3
Grape vine leaf disks are placed on water agar in multiwell plates (24-well format) and sprayed with the formulated test compound diluted in water. The leaf disks are inoculated with a spore suspension of the fungus 1 day after application. The inoculated leaf disks are incubated at 19° C. and 80% rh under a light regime of 12 h light/12 h darkness in a climate cabinet and the activity of a compound is assessed as percent disease control compared to untreated when an appropriate level of disease damage appears in untreated check leaf disks (6-8 days after application).

[2] = test system: Phaeosphaeria nodorum (Septoria nodorum); experiment: Phaeosphaeria nodorum (Septoria nodorum) / wheat / leaf disc preventative (glume blotch); assay type: in vivo; conditions: Parastagonospora nodorum, foliar, wheat leaf segments cv. Kanzler, inoculated 2 days after application, assessed 5-7 days after application, read-out: inhibit fungal infestation (percent disease control compared to untreated)
Method: as §1, §2, §3
Wheat leaf segments cv. Kanzler are placed on agar in a multiwell plate (24-well format) and sprayed with the formulated test compound diluted in water. The leaf disks are inoculated with a spore suspension of the fungus 2 days after application. The inoculated test leaf disks are incubated at 20° C. and 75% rh under a light regime of 12 h light/12 h darkness in a climate cabinet and the activity of a compound is assessed as percent disease control compared to untreated when an appropriate level of disease damage appears in untreated check leaf disks (5-7 days after application).

Structure (SMILES)	inhibition at 200 ppm (Phytophthora infestans) [%]	melting point [°C]	inhibition at 200 ppm ([1]; in Triticum aestivum) [%]	inhibition at 200 ppm (Pythium ultimum) [%]	inhibition at 200 ppm (Plasmopara viticola) [%]	inhibition at 200 ppm ([2]; in Triticum aestivum) [%]	inhibition at 200 ppm [1] [%]	inhibition at 200 ppm [2] [%]
C=Cc1cnc2c(F)cc(OC(SC)C(=O)NC(C)(C)/C=N/OC)cc2c1 (stereo not drawn) [Compound 37]	≥ 80	105 to 107	≥ 80	≥ 80	≥ 80	≥ 80		
C=Cc1cnc2c(C)cc(OC(SC)C(=O)NC(C)(C)/C=N/OC)cc2c1 (stereo not drawn) [Compound 35, N-(2-Methoxyimino-1,1-dimethyl-ethyl)-2-methylsulfanyl-2-(8-methyl-3-vinyl-quinolin-6-yloxy)-acetamide]	≥ 80	87 to 89		≥ 80	≥ 80		≥ 80	≥ 80
C=Cc1cnc2ccc(OC(SC)C(=O)NC(C)(C)/C=N/OC)cc2c1 (stereo not drawn) [Compound 34, N-(2-Methoxyimino-1,1-dimethyl-ethyl)-2-methylsulfanyl-2-(3-vinyl-quinolin-6-yloxy)-acetamide]	≥ 80	114 to 116		≥ 80	≥ 80		≥ 80	≥ 80
C#CC(C)(C)NC(=O)C(Oc1cc(C)c2ncc(CC)cc2c1)SC (stereo not drawn) [Compound 18, N-(1,1-Dimethyl-prop-2-ynyl)-2-(3-ethyl-8-methyl-quinolin-6-yloxy)-2-methylsulfanyl-acetamide]	≥ 80	92 to 93		≥ 80	≥ 80		≥ 80	≥ 80
C#CC(C)(C)NC(=O)C(Oc1ccc2ncc(C=C)cc2c1)SC (stereo not drawn) [Compound 33, N-(1,1-Dimethyl-prop-2-ynyl)-2-methylsulfanyl-2-(3-vinyl-quinolin-6-yloxy)-acetamide]	≥ 80	142 to 144		≥ 80	≥ 80		≥ 80	≥ 80
C#CC(C)(C)NC(=O)C(Oc1cc(C)c2ncc(C=C)cc2c1)SC (stereo not drawn) [Compound 36, N-(1,1-Dimethyl-prop-2-ynyl)-2-methylsulfanyl-2-(8-methyl-3-vinyl-quinolin-6-yloxy)-acetamide]	≥ 80	115 to 117		≥ 80	≥ 80		≥ 80	≥ 80
CO/N=C/C(C)(C)NC(=O)C(Oc1cc(C)c2ncc(C)cc2c1)SC (stereo not drawn) [Compound 8, 2-(3,8-Dimethyl-quinolin-6-yloxy)-N-(2-methoxyimino-1,1-dimethyl-ethyl)-2-methylsulfanyl-acetamide]	≥ 80	109 to 111		≥ 80	≥ 80		≥ 80	≥ 80
CCc1cnc2c(F)cc(OC(SC)C(=O)NC(C)(C)/C=N/OC)cc2c1 (stereo not drawn) [Compound 14, 2-(3-Ethyl-8-fluoro-quinolin-6-yloxy)-N-(2-methoxyimino-1,1-dimethyl-ethyl)-2-methylsulfanyl-acetamide]	≥ 80	101 to 103		≥ 80	≥ 80		≥ 80	≥ 80
